{
  "source": "patent US9176153B2",
  "about": "“Prevention therapy and prognosis/monitoring in sepsis and septic shock” (NEDERLANDSE ORGANISATIE VOOR […] ONDERZOEK TNO, priority 2002, dated 2015)",
  "molecules": {"B1": {"name": "APDLSGTLESIPDKLKEFGNTLEDKARAAIEHIKQKEILTKTRAWFSEAFGKVKEKLKTTFS (protein)", "chain": "APDLSGTLESIPDKLKEFGNTLEDKARAAIEHIKQKEILTKTRAWFSEAFGKVKEKLKTTFS", "modifications": "Muss p.; SITE (1)..(62) primary amino acid sequence of apoCI", "notes": "endogenous mouse apolipoprotein CI in murine plasma"}},
  "key": {"[1]": {"system": "LPS Re595", "experiment": "liver uptake and serum residence of 125I-LPS after intravenous injection in mice", "format": "in vivo, Wild-type (C57B1/6) mice", "conditions": "for effect on behavior of 125I-LPS after intravenous injection (liver uptake, residence in blood): 125I-LPS Re595 10 μg/kg, LPS:apoCI 1:0.2 to 1:16, LPS:albumin 1:16", "method": "Wild-type (C57B1/6) mice were anesthetized and, via the lower vena cava, injected intravenously with radioactively (^125I) labeled LPS Re595 (10 μg/kg) without, and with, respectively, apoCI (molar ratio LPS:apoCI=1:0.2, 1:0.5, 1:1 and 1:16) and bovine serum albumin (molar ratio LPS:albumin=1:16). Blood samples and bits of liver tissue were taken at t=2, 5, 10, 20 and 30 minutes after injection. After this, the mice were sacrificed. Next, the amounts of LPS in the blood sera and liver samples were quantified on the basis of the amount of radioactive radiation. Also, a serum sample was taken 30 minutes after injection of LPS:apoCI (1:1) and subjected to agarose gel electrophoresis to study the distribution of the ^125I-LPS over the various lipoproteins. Lipoprotein lipids were visualized with the aid of Sudan Black, and ^125I-LPS by means of autoradiography. In FIGS. 6A and 6B the amounts of ^125I-LPS in the liver and the blood serum, respectively, are plotted as a percentage of the injected dose against time (n=3.+−.SEM). […] Already at a molar ratio of 1:1, the uptake of LPS by the liver was reduced 8-fold. The strong binding of apoCI to LPS (see Example 2) therefore proves to be relevant in the blood too."}, "[2]": {"system": "TNFα", "experiment": "LPS-induced TNFα response in mice", "format": "in vivo, Wild-type (C57B1/6) mice", "method": "Wild-type (C57B1/6) mice were injected, by way of the tail vein, with LPS Re595 (25 μg/kg) without, and with, apoCI (molar ratio LPS:apoCI=1:5). Blood samples were taken at t=0, 30, 60, 90, 120 and 180 minutes after injection. In the samples, subsequently, the amount of TNFα was quantified with the aid of a mouse-TNFα specific ELISA according to the accompanying instructions (Immunosource, Halle, Belgium, cat. no. BMS607MST), and the amounts of TNFα in the blood plasma were subsequently plotted against time."}, "[3]": {"system": "FITC-LPS Re595", "experiment": "monomerization of FITC-LPS by pure apolipoprotein (fluorescence dequenching)", "format": "biochemical", "conditions": "FITC-LPS Re595 100 ng, molar ratios 1:1, 1:5, 1:10 and 1:20", "method": "Finally, the effect of apoCI on the monomerization rate of LPS was studied. […] FITC-LPS Re595 (100 ng) was incubated with pure human apoCI (in molar ratios 1:1, 1:5, 1:10 and 1:20), after which the occurrence of fluorescence was followed in time with the aid of a fluorimeter."}, "[4]": {"system": "FITC-LPS Re595", "experiment": "monomerization of FITC-LPS by murine plasma with different apoCI levels", "format": "biochemical, mouse", "method": "We have determined the effect of the apoCI level in murine plasma on monomerization of FITC-LPS as described in Example 2. For that purpose, FITC-LPS was incubated with plasma that had been isolated from wild-type mice, genetically modified mice which are deficient for apoCI (apocl^−/−), or genetically modified mice which express the human apoCI hemizygote (APOC1^+/0) or homozygote (APOC1^+/+).\nFITC-LPS Re595 (100 ng) was incubated with plasma (0.125%) isolated from the blood of the various mouse types, after which the occurrence of fluorescence was followed in time with the aid of a fluorimeter. The expression of human apoCI in mouse plasma led to an apoCI-dose dependent increase of the FITC-LPS monomerization, which was 32% at a maximum. […] This indicates not only that mouse-apoCI, like human apoCI, is capable of monomerizing LPS, but especially also that the endogenous presence of apoCI contributes for a considerable part to the total LPS-disaggregated capacity of mouse plasma."}, "[5]": {"system": "LPS", "experiment": "LPS-induced inhibition of apolipoprotein-specific sandwich ELISA", "format": "binding", "method": "The apoCI level in blood plasma can be established in any suitable manner. Preferably, the apoCI level is determined with a sandwich Enzyme-Linked ImmunoSorbent Assay (sandwich ELISA). To this end, for instance 96-wells plates (medium-binding plates; Costar) are coated with a (10,000-fold dilution of a) polyclonal antibody to human apoCI generated in goat (goat-anti human apoCI; Academy Bio-Medical Company, Houston, USA; cat. 31A-Glb). Next, human blood plasma or serum is added (100,000-300,000-fold dilution), whereby the apoCI present therein is quantitatively bound by this primary antibody. […] The HRP is subsequently quantified by means of a stain reaction with 3,3′,5,5′-tetramethylbenzidine (TMB) as substrate, and the stain intensity is compared with a calibration curve which is constructed with pure human apoCI (Labconsult, Brussels, Belgium; cat. A50366H).\nA particular amount of human apoCI (0.75 ng/mL) was incubated with LPS in increasing molar ratios, after which the apoCI concentration was determined with the aid of the human apoCI-specific sandwich ELISA as described above under F. The LPS-induced inhibition of the stain reaction from which the apoCI concentration is read, was determined as a percentage of the maximum staining in the absence of LPS (n=2.+−.SEM) (FIG. 3). […]"}, "[6]": {"system": "LPS Re595 (Salmonella minnesota)", "experiment": "agarose gel electrophoresis of 125I-LPS incubated with human apoCI", "format": "binding", "method": "LPS Re595 (Salmonella minnesota) was radioactively labeled with ^125I as described (Rensen, 1997) and incubated (30 min at 37° C.) with increasing amounts of human apoCI which has been isolated from human blood (Tournier, 1984). Next, the incubation volumes were transferred to an agarose gel (position Rf 0), after which, for 2 hours, an electrophoretic field was applied (so-called agarose gel electrophoresis). After electrophoresis, the ^125I-LPS was visualized by means of autoradiography. Through its negative charge, LPS tends to migrate to the positive pole (anode); which, however, is prevented in that the LPS forms large micellary structures that cannot pass the relatively small pores formed by the agarose matrix.\nAlso, the effect of increasing amounts of LPS on the migration of a fixed amount of apoCI was determined. For that purpose, the apoCI was visualized in the gel after electrophoresis by means of immunoblotting with a horseradish peroxidase-conjugated antibody directed against human apoCI (Academy Bio-Medical Company, Houston, USA; cat. 31H-G1b)."}},
  "note": "Entries after “also recorded” stand apart in the source; their conditions may differ.",
  "data": [
    {"molecule": "Bovine serum albumin: bovine serum albumin used as control protein [reference compound]", "values": [
      {"measurement": "effect on behavior of 125I-LPS after intravenous injection (liver uptake, residence in blood)", "setting": "[1]", "result": "not effective"}
    ]},
    {"molecule": "TPDVSSALDKLKEFGNTLEDKARELISRIKQSELSAKMREWFSETFQKVKEKLKIDS (human apoCI peptide) [human apolipoprotein CI, 57 amino acids, 6.6 kDa, purified from human blood]", "values": [
      {"measurement": "increase of the LPS-induced TNF level versus LPS alone", "setting": "[2]; LPS Re595 25 μg/kg with apoCI, molar ratio 1:5", "result": "fourfold"},
      {"measurement": "LPS-induced TNF level in blood plasma", "setting": "[2]; LPS Re595 25 μg/kg with apoCI, molar ratio LPS:apoCI 1:5, tail vein, versus 2.8 for LPS alone", "result": 10.8, "unit": "ng/mL"},
      {"measurement": "TNFα induction by apoCI without LPS", "setting": "[2]; equal amount of apoCI without LPS", "result": "no TNFα inducing effect"},
      {"measurement": "increase in FITC fluorescence (monomerization of LPS)", "setting": "[3]", "result": "dose-dependent monomerization of LPS micelles"},
      {"measurement": "increase in FITC fluorescence (monomerization of LPS)", "setting": "[3]; listed as ApoCI", "result": "increase strongly in a dose-dependent manner"},
      {"measurement": "increase of the FITC-LPS monomerization by expression of human apoCI in mouse plasma", "setting": "[4]; plasma 0.125% of APOC1+/0 or APOC1+/+ mice versus wild-type, maximum", "result": 32, "unit": "%"},
      {"measurement": "LPS-induced inhibition of the staining reaction of apoCI-specific sandwich ELISA", "setting": "[5]; 200-fold molar excess of LPS to apoCI, apoCI 0.75 ng/mL, percentage of maximum staining in absence of LPS", "result": "more than 40%"},
      {"measurement": "effect on behavior of 125I-LPS after intravenous injection (liver uptake, residence in blood)", "setting": "[1]", "result": "inhibit the decrease of LPS from the blood strongly and dose-dependently; also recorded: strongly reducing the uptake of LPS by the liver"},
      {"measurement": "reduction of uptake of LPS by the liver", "setting": "[1]; molar ratio LPS:apoCI 1:1, 125I-LPS Re595 10 μg/kg intravenously", "result": 8, "unit": "fold"},
      {"measurement": "migration of 125I-LPS in agarose gel", "setting": "[6]; 0.5 molecules of apoCI with respect to 1 molecule of LPS, incubated 30 min at 37° C., 2 hours electrophoresis", "result": "complete migration of the LPS to the positive pole"},
      {"measurement": "migration of apoCI in agarose gel on binding of LPS", "setting": "[6]; fixed amount of apoCI, increasing amounts of LPS, immunoblotting", "result": "accelerated migration of apoCI to the positive pole"}
    ]},
    {"molecule": "apoCIII: apolipoprotein CIII, 79 amino acids, two amphipatic helices, comparable size and structure to apoCI [reference compound]", "values": [
      {"measurement": "increase in FITC fluorescence (monomerization of LPS)", "setting": "[3]", "result": "hardly effective"},
      {"measurement": "effect of LPS on quantification with apoCIII-specific sandwich ELISA", "setting": "[5]; comparable apoCIII-specific sandwich ELISA", "result": "no effect"}
    ]},
    {"molecule": "B1", "values": [
      {"measurement": "reduction of monomerization of FITC-LPS owing to absence of mouse-apoCI", "setting": "[4]; plasma 0.125% of apoc1-/- mice versus wild-type", "result": 60, "unit": "%"}
    ]}
  ]
}
